Experimental data: patent US5013549A, “Production, isolation, and identification of novel antifungal compounds” (priority 1990, dated 1991)
≈ marks a conversion by molar mass, not a printed value. Entries after “also recorded” stand apart in the source; their conditions may differ. Read-outs that look alike come from different tables or passages of the source.

How the values were obtained:
murine tumors = conditions: more active than adriamycin; cited from earlier work
C. neoformans- G-3 = assay: Minimum inhibitory concentration, C. neoformans- G-3; assay type: cell-based; conditions: Cryptococcus neoformans
Experimental: (§1) Known amounts of the purified substance were dissolved in DMSO and serial dilutions prepared in the same solvent. A 20 ul volume of each dilution was placed on the surface of Emmon's agar in petri-dishes seeded with various test strains of pathogenic and saprophytic fungi. The antibacterial activity was monitored using Muller-Hilton agar. The minimum inhibitory concentration (MIC) was determined by incorporating known amount of the DMSO dissolved purified substance into Emmon's liquid medium (same as stated earlier but devoid of agar) contained in test tubes. The tubes were inoculated with ca 2×10^3 CFU of the test organisms. The inoculated tubes were incubated at 26° C. and the results recorded after two to 5 days depending upon the growth pattern of the test organisms (certain fungi grow faster than others). Tubes inoculated in an identical manner but devoid of the active substance served as controls.

Solubility = assay type: physicochemical
Cladosporium species = assay: Minimum inhibitory concentration, Cladosporium species; assay type: cell-based; conditions: 26° C., 2 to 5 days, Emmon's liquid medium, fungus
Experimental: as §1

Plebsiella pneumoniae = assay: Minimum inhibitory concentration, Plebsiella pneumoniae; assay type: cell-based
Experimental: as §1

Citrobacter species = assay: Minimum inhibitory concentration, Citrobacter species; assay type: cell-based; conditions: bacterial strain
Experimental: as §1

Candida albicans = assay: Minimum inhibitory concentration, Candida albicans; assay type: cell-based; conditions: 26° C., 2 to 5 days, Emmon's liquid medium, fungus
Experimental: as §1

Aspergillus fumigatus = assay: Minimum inhibitory concentration, Aspergillus fumigatus; assay type: cell-based
Experimental: as §1

[1] = test system: S. aureus (multiple drug resistant); assay: Minimum inhibitory concentration, S. aureus (multiple drug resistant); assay type: cell-based, Staphylococcus aureus; conditions: bacterial strain
Experimental: as §1

[2] = test system: Cryptococcus neoformans-N-2; assay: Minimum inhibitory concentration, Cryptococcus neoformans-N-2; assay type: cell-based; conditions: N = encapsulated, mucoid strain with neurotropic tendencies, 26° C., 2 to 5 days
Experimental: as §1

C.neoformans serotype-D = assay: Minimum inhibitory concentration, C.neoformans serotype-D; assay type: cell-based; conditions: Cryptococcus neoformans, 26° C., 2 to 5 days
Experimental: as §1

Escherichia coli = assay: Minimum inhibitory concentration, Escherichia coli; assay type: cell-based; conditions: bacterial strain
Experimental: as §1

S. aureus ATCC 25923 = assay: Minimum inhibitory concentration, S. aureus ATCC 25923; assay type: cell-based, Staphylococcus aureus; conditions: bacterial strain ATCC 25923
Experimental: as §1

Rhodotorula rubra = assay: Minimum inhibitory concentration, Rhodotorula rubra; assay type: cell-based
Experimental: as §1

Pseudomonas aeruginosa = assay: Minimum inhibitory concentration, Pseudomonas aeruginosa; assay type: cell-based; conditions: bacterial strain
Experimental: as §1

C. neoformans- N-3 = assay: Minimum inhibitory concentration, C. neoformans- N-3; assay type: cell-based; conditions: Cryptococcus neoformans; N = encapsulated, mucoid strain with neurotropic tendencies; 26° C., 2 to 5 days
Experimental: as §1

Penicillium species = assay: Minimum inhibitory concentration, Penicillium species; assay type: cell-based; conditions: 26° C., 2 to 5 days, Emmon's liquid medium, fungus
Experimental: as §1

Stability in 2N HCl = assay type: physicochemical
A. flavus = assay: Minimum inhibitory concentration, A. flavus; assay type: cell-based; conditions: Aspergillus flavus; 26° C., 2 to 5 days, Emmon's liquid medium; fungus
Experimental: as §1

R. glutinis = assay: Minimum inhibitory concentration, R. glutinis; assay type: cell-based; conditions: Rhodotorula glutinis
Experimental: as §1

[3] = test system: Staphylococcus aureus ATCC 29213; assay: Minimum inhibitory concentration, Staphylococcus aureus ATCC 29213; assay type: cell-based; conditions: bacterial strain ATCC 29213
Experimental: as §1

C. neoformans serotype-C = assay: Minimum inhibitory concentration, C. neoformans serotype-C; assay type: cell-based; conditions: Cryptococcus neoformans
Experimental: as §1

A. niger = assay: Minimum inhibitory concentration, A. niger; assay type: cell-based; conditions: Aspergillus niger; 26° C., 2 to 5 days, Emmon's liquid medium; fungus
Experimental: as §1

C. quilliermondii = assay: Minimum inhibitory concentration, C. quilliermondii; assay type: cell-based
Experimental: as §1

fungi = conditions: known related compounds; cited from earlier work
[4] = cited from earlier work

CCN[C@H]1CO[C@@H](O[C@H]2[C@H](O[C@H]3C#C/C=C\C#C[C@]4(O)CC(=O)C(NC(=O)OC)=C3/C4=C\CSSSC)O[C@H](C)[C@@H](NO[C@H]3C[C@H](O)[C@H](SC(=O)c4c(C)c(I)c(O[C@@H]5O[C@@H](C)[C@H](O)[C@@H](OC)[C@H]5O)c(OC)c4OC)[C@@H](C)O3)[C@@H]2O)C[C@@H]1OC [Calicheamicin]
activity relative to adriamycin against murine tumors (murine tumors): approximately 1000 -fold

CCC1(O)CC(OC2CC(N(C)C)C(OC3CC(O)C(OC4CCC(=O)C(C)O4)C(C)O3)C(C)O2)c2c(cc3c(c2O)C(=O)c2c(O)ccc(O)c2C3=O)C1C(=O)OC (stereo not drawn) [spartanamicin B]
MIC (C. neoformans- G-3): 1 mg/L (≈ 1.21 µM) | Solubility (Solubility; in 1-butanol): Sparingly soluble | Solubility (Solubility; in 2N HCl): Insoluble | Solubility (Solubility; in N,N-dimethyl formamide (DMF)): Soluble | Solubility (Solubility; in acetone): Soluble | Solubility (Solubility; in acetonitrile): Sparingly soluble | Solubility (Solubility; in carbon tetrachloride): Soluble | Solubility (Solubility; in chloroform): Soluble | Solubility (Solubility; in cyclohexane): Insoluble | Solubility (Solubility; in dimethyl sulfoxide (DMSO)): Soluble | Solubility (Solubility; in ethanol): not soluble; also recorded: Sparingly soluble | Solubility (Solubility; in ethyl acetate): Soluble | Solubility (Solubility; in glacial acetic acid): Soluble | Solubility (Solubility; in hexane): Insoluble | Solubility (Solubility; in methanol): not soluble; also recorded: Sparingly soluble | Solubility (Solubility; in toluene): Soluble | Solubility (Solubility; in water): Insoluble | MIC (Cladosporium species): 0.4 mg/L (≈ 0.483 µM) | MIC (Plebsiella pneumoniae): 100 mg/L (≈ 121 µM) | MIC (Citrobacter species): not active | MIC (Candida albicans): 0.2 mg/L (≈ 0.242 µM) | MIC (Aspergillus fumigatus): 0.4 mg/L (≈ 0.483 µM) | MIC [1]: not active | MIC [2]: 0.8 mg/L (≈ 0.966 µM) | MIC (C.neoformans serotype-D): 0.8 mg/L (≈ 0.966 µM) | MIC (Escherichia coli): not active | MIC (S. aureus ATCC 25923): 0.8 mg/L (≈ 0.966 µM) | MIC (Rhodotorula rubra): 0.8 mg/L (≈ 0.966 µM) | MIC (Pseudomonas aeruginosa): 100 mg/L (≈ 121 µM) | MIC (C. neoformans- N-3): 0.6 mg/L (≈ 0.725 µM) | MIC (Penicillium species): 0.2 mg/L (≈ 0.242 µM) | stability upon standing in 2N HCl (Stability in 2N HCl): hydrolyses | MIC (A. flavus): 0.6 mg/L (≈ 0.725 µM) | MIC (R. glutinis): 0.4 mg/L (≈ 0.483 µM) | MIC [3]: 0.8 mg/L (≈ 0.966 µM) | MIC (C. neoformans serotype-C): 0.8 mg/L (≈ 0.966 µM) | MIC (A. niger): 0.6 mg/L (≈ 0.725 µM) | MIC (C. quilliermondii): 0.8 mg/L (≈ 0.966 µM)

CC[C@@]1(O)C[C@H](O[C@H]2C[C@H](N(C)C)[C@H](O[C@H]3C[C@@H]4O[C@H]5CC(=O)[C@H](C)O[C@H]5O[C@@H]4[C@H](C)O3)[C@H](C)O2)c2c(cc3c(c2O)C(=O)c2c(O)ccc(O)c2C3=O)[C@H]1C(=O)OC [cinerubin B]
antifungal properties (fungi): not significantly antifungal | solubility of known cinerubins ([4]; in ethanol): soluble | solubility of known cinerubins ([4]; in methanol): soluble

CCC1(O)CC(OC2CC(N(C)C)C(OC3CC(O)C(OC4CCC(=O)C(C)O4)C(C)O3)C(C)O2)c2c(cc3c(c2O)C(=O)c2c(O)ccc(O)c2C3=O)C1C(=O)OC (stereo not drawn) [cinerubin A]
antifungal properties (fungi): not significantly antifungal | solubility of known cinerubins ([4]; in ethanol): soluble | solubility of known cinerubins ([4]; in methanol): soluble
